Results taken from US20130029381A1, “MICROORGANISMS FOR THE PRODUCTION OF 1,4-BUTANEDIOL, 4-HYDROXYBUTANAL, 4-HYDROXYBUTYRYL-COA, PUTRESCINE AND RELATED COMPOUNDS, AND METHODS RELATED THERETO” (GENOMATICA, INC., priority 2009, published 2013).

Columns and labels:
[1] = biological target: T1, L(+)-lactate dehydrogenase from A. eutrophus (Cupriavidus necator, UniProt Q07251); conditions: compared with that on pyruvate; cited from earlier work
T1 sequence (Q07251 1-349): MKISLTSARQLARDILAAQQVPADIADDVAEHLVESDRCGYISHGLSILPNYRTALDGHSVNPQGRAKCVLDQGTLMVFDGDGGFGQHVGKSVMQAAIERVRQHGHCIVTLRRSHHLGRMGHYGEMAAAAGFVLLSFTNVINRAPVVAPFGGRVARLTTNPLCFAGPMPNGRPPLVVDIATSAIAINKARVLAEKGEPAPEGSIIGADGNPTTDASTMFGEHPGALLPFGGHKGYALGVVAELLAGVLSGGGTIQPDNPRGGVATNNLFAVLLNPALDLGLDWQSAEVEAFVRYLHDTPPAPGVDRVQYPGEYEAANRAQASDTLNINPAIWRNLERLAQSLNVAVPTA

homoserine kinase = homoserine kinase (Escherichia coli, UniProt P00547); conditions: cited from earlier work
[2] = biological target: T2, L(+)-lactate dehydrogenase from rabbit muscle (Oryctolagus cuniculus, UniProt P13491); conditions: compared with that on pyruvate; cited from earlier work
T2 construct: rabbit muscle; host or cells: rabbit muscle

O=CCCCO = assay: ADH enzyme assay of Adh1 (084), Km for aldehyde substrates; type: biochemical, Geobacillus thermoglucosidasius; conditions: other: reductive ADH assay, enzyme expressed in E. coli; pH 7.5
Source text: (§1) The Adh1 enzyme (084) expressed very well from its native gene in E. coli (see FIG. 32A).

CCCC=O = assay: as above; type: biochemical, Geobacillus thermoglucosidasius; conditions: other: reductive ADH assay, enzyme expressed in E. coli; pH 7.5
Source text: as §1

Chain of homoserine kinase (P00547 whole entry): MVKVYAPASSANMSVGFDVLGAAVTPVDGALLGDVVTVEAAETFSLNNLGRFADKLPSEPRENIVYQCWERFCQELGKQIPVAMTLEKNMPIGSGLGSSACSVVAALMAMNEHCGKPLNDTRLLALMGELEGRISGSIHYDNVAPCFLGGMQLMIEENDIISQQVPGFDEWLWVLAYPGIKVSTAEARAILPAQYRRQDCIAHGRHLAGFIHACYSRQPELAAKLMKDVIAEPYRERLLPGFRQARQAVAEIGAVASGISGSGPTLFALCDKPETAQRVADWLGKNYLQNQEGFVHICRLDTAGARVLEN

For `CCC(=O)C(=O)O` [2-Oxobutyrate], the “Activity (%) of L(+)-lactate dehydrogenase from A. eutrophus” value (from here on “Activity (%) … from A. eutrophus”) [1] is given as 107.0%.
For `O=C(O)CCC(=O)C(=O)O` [2-Oxoglutarate], the “Activity (%) … from A. eutrophus” value [1] is given as 79.6%.
In the case of `CCCC(=O)C(=O)O` [2-Oxovalerate], the “Activity (%) … from A. eutrophus” value [1] is listed as 125.0%.
For `O=C(O)C(=O)CF` [3-Fluoropyruvate], the “Activity (%) … from A. eutrophus” value [1] is listed as 33.6%.
In the case of `CC(C)C(=O)C(=O)O` [3-Methyl-2-oxobutyrate], the “Activity (%) … from A. eutrophus” value [1] is given as 28.5%.
In the case of `N[C@H](CCO)C(=O)O` [D-homoserine], the Km (homoserine kinase) is listed as 31.8 ± 7.2 mM.
For `O=CC(=O)O` [Glyoxylate], the “Activity (%) of L(+)-lactate dehydrogenase from rabbit muscle” value [2] is listed as 23.9%.
For `N[C@H](CO)CCO` [L-2-amino-1,4-butanediol], the Km (homoserine kinase) is listed as 11.6 ± 6.5 mM.
In the case of `CCOC(=O)[C@@H](N)CCO` [L-homoserine ethyl ester], the Km (homoserine kinase) is listed as 1.9 ± 0.5 mM.
In the case of `CC(C)COC(=O)[C@@H](N)CCO` [L-homoserine isobutyl ester], the Km (homoserine kinase) is listed as 6.9 ± 1.1 mM.
For `CC(C)OC(=O)[C@@H](N)CCO` [L-homoserine isopropyl ester], the Km (homoserine kinase) is given as 1.2 ± 0.5 mM.
In the case of `COC(=O)[C@@H](N)CCO` [L-homoserine methyl ester], the Km (homoserine kinase) is given as 4.9 ± 2 mM.
In the case of `CCCOC(=O)[C@@H](N)CCO` [L-homoserine n-propyl ester], the Km (homoserine kinase) is given as 3.5 ± 0.4 mM.
In the case of `N[C@@H](CCO)C(=O)O` [L-homoserine], the Km (homoserine kinase) is given as 0.14 ± 0.04 mM.
In the case of “Adh1 enzyme (084) (Geobacillus sp. M10EXG)”, the Km (O=CCCCO) is reported as 4.0 mM and the Km (CCCC=O) is reported as 1.2 mM.
